Consider 1 compound from patent US11324219B2, “Amide compound or salt thereof, agricultural and horticultural microbicide comprising the compound and the salt, and method for using the agricultural and horticultural microbicide” (Nihon Nohyaku Co., Ltd., priority 2018, dated 2022).

As a reminder, the melting point is the temperature of the solid-liquid transition. Turning to `CCS(=O)(=O)c1cc(C(F)(F)F)ccc1C(=O)Nc1oc(C(F)(F)F)cc1Br` [Compound 1-23, N-[3-bromo-5-(trifluoromethyl)furan-2-yl]-2-(ethylsulfonyl)-4-(trifluoromethyl)benzamide], the melting point was in the range of 160 to 162 °C.
